Experimental data published in patent publication US8236848B2, “Diindolylmethane for the treatment of HPV infection” (BioResponse, L.L.C., priority 2001, dated 2012).

Columns and labels:
[1] = test system: verrucae involving the plantar skin; assay: Oral Diindolylmethane for childhood warts (case two); type: in vivo, human; conditions: child two; 75 mg/day (3 mg/kg/day)
Description: The usefulness of oral forms of Diindolylmethane in treating verrucous disease of childhood is illustrated by the case of C. B. The subject is a child with classic verrucae involving the plantar skin of one foot. The process began as a single wart, which was frozen with liquid nitrogen by a pediatrician. […] Within 2 months, however, a new wart recurred at the sight of the original scar. Upon recurrence the primary lesion measured approximately 0.75 cm in diameter but was now circled by a number of smaller satellite lesions surrounding the recurrent primary wart.
Treatment was initiated with 75 mg/day of Diindolylmethane in an absorbable formulation (300 mg total formula weight). With the patient weighing 25 kg, this provided 3 mg/kg/day of Diindolylmethane and 12 mg/kg/day of the formulation. […] There was no pain or scarring associated with the gradual resolution.

[2] = test system: cutaneous warts (verrucae vulgaris); assay: Oral Diindolylmethane with Pregnenolone for cutaneous warts (case three); type: in vivo, human; conditions: patient three; dose increased to maximum of 150 mg/day over 6 weeks
Procedure: Pregnenolone at 50 mg/day in a capsule form was added for immune enhancement.

[3] = human, in vivo
Procedure: The subject is preferably fasting and plasma is preferred over serum. In this method 120 mg or more of formulated DIM (30 mg or more of actual DIM) are taken orally by a subject fasting for at least 4 hours along with 8 ounces of water. Blood samples are obtained on a timed basis between 120 and 180 minutes after ingesting the DIM. Samples obtained during this timeframe are analyzed by a Gas Chromatography Mass Spectrometry (GC-MS) technique. Circulating amounts of DIM during this timeframe are maximal levels following a single dose. […] The following steps describe the method for determining amounts of absorbed DIM in blood. • 1. […] The following ions are monitored: m/z 390 (primary), 391,392 (confirmatory). Area for peak 390 is measured. • 9. […]
For blood level studies adult subjects were studied in a fasting state. […] Sample analysis using a technique for GC-MS measurement of Diindolylmethane, involving acetonitrile extraction, silyation, and GC-MS quantitation was performed as adapted from the literature (Stresser, D. M., Bjeldanes, L. F., Bailey, G. S., et al., “The anticarcinogen 3,3′-Diindolylmethane is an inhibitor of cytochrome P-450”, J. Biochem. Toxicol., 10(4):191-201 (1995)) and described in section 4.2 above. […]

[4] = test system: HPV-related cervical dysplasia; assay: Oral Diindolylmethane for HPV-related cervical dysplasia (case histories and open pilot study); conditions: four women, 112 mg/day actual Diindolylmethane
Description: Women with moderate to severe dyplasia on cervical biopsies volunteered for an open trial of oral Diindolylmethane supplementation.
Four women, meeting the criteria of moderate to severe HPV-related cervical dysplasia were included in a pilot study.

[5] = Urinary Diindolylmethane levels by GC-MS after a single oral dose; type: in vivo, human; conditions: for Urinary DIM: 75 mg oral dose (300 mg of 25% formulation), single individual
Procedure: The invention also provides a method for determining the urine level of DIM in a subject following oral administration of Diindolylmethane. In this method 300 mg or more of formulated DIM (75 mg or more of actual DIM) are taken with 8 ounces of water. Urine samples are obtained every 90 minutes for a period of 360 minutes. GC-MS operating conditions included were based on a published GC-MS analysis technique for DIM in urine (Sepkovic D W, Bradlow H L, Bell M, “Quantitative Determination of 3,3′-Diindolylmethane in the Urine of Individuals Receiving Indole-3-Carbinol” J. Nutrition (2002 in press). The following technique for analyzing DIM in urine samples was used: • 1. A 1 cc aliquot of urine for assay of diindolylmethane is mixed with 1 cc of sodium acetate buffer (pH 4.8) and 20 ul Beta-Glucuronidase from Helix Pomatia (110,200 units/ml: Sigma, St. Louis, Mo.). • 2. The solution is incubated at 40° C. for 24 hours. • 3. An internal standard of 4,4′dichlorodiindolylmethane is then added. • 4. The sample is then extracted in twice equal volume of chloroform and the sample vortexed and reduced to dryness under vacuum. • 5. The dried residue is dissolved in 20 uL of anhydrous pyridine and derivatized with 80 ul of N2O-bis-(timethyl-silyl)trifluoroacetamide (BFSTA) (Pierce Biochemical Co, Rockford, Ill.). The sample is heated to 100° C. for one hour. • 6. The derivatized sample is then injected into a Gas Chromatography Mass Spectrometer (GC-MS) in single ion monitoring mode recording results at a derivatized mass of 390. The following ions are monitored: m/z 390 (primary), 391,392 (confirmatory). Area for peak 390 is measured. • 7. Peaks are compared to a standard curve for pure diindoylylmethane in known concentrations as a standard. • 8. Creatinine in each 90 minute timed urine sample was measured by a standard Kinetic Alkaline Picrate (KAP) colormetric assay with results in mg of creatinine per cc of urine. • 9. Results obtained for DIM from the 1 cc aliquot of each timed urine sample are reported as nanograms of DIM per mg of Creatinine. This permits comparisons of urine samples of different water content in different timed samples eliminating the effects of changing hydration status of the human subject.
A related gas chromatography-mass spectrometry (GC-MS) method for the quantitation of Diindolylmethane in urine was developed. This technique is simpler, requiring less sample preparation but similar use of GC-MS analysis and provides results expressed as nanograms of Diindolylmethane per mg of Creatinine (ng DIM per mg Cre). Since production rates of Creatinine (Cre) are constant in an individual this technique allows comparison of urine samples from different times having differing water content. Sepkovic, D. W., Bradlow, H. L. Bell, M., Quantitative Determination of 3,3′-Diindolylmethane in the Urine of Individuals Receiving Indole-3-Carbinol, J. Nutrition (in press 2002).
A single individual was studied after taking 75 mg Diindolylmethane (300 mg of a 25% absorption-enhance formulation of Diindolylmethane) as a single dose after waiting 4 days since prior use of Diindolylmethane. Urine samples were collected every 90 minutes for a total of 360 minutes, frozen, and subsequently analyzed as described.

[6] = test system: cervical intraepithelial neoplasia (CIN); conditions: after 3 months on either 200 mg/day or 400 mg/day of I3C; 8 of 17; cited from earlier work
laryngeal papillomatosis = conditions: cited from earlier work
[7] = test system: Recurrent Laryngeal Papillomatosis (RRP); assay: Oral therapy of Recurrent Laryngeal Papillomatosis in a child (case one); type: in vivo, human; conditions: child A. L.; oral I3C 5-7 mg per kg, 6 months; no lengthening of intervals between surgical procedures
Procedure: The following describes oral Diindolylmethane therapy for the Recurrent Laryngeal Papillomatosis (RRP), a rare condition in which wart like lesions develop in and around the larynx and vocal cords in association with HPV. patient one is a child with RRP. They were diagnosed with RRP. Before Diindolylmethane therapy they had undergone 21 laryngoscopic surgical procedures for recurrent laryngeal papillomas compromising their airway. […] Tracheostomy was performed in 1998 to provide a more secure airway. Diindolylmethane in an absorbable formulation according to U.S. Pat. No. […] Surgical frequency increased immediately to two months.

[8] = dietary supplementation with I3C, laryngeal papillomatosis

Compound	Side effects associated with the oral treatment [1]	Side effects [2]	Augmentation in Diindolylmethane blood levels from the low to high dose [3]	Side effects or adverse events [4]	Urinary DIM ([5]; 90 minutes) [ng/mg Cre]	Urinary DIM ([5]; 180 minutes) [ng/mg Cre]	Urinary DIM ([5]; 270 minutes) [ng/mg Cre]	Urinary DIM ([5]; 360 minutes) [ng/mg Cre]	Plateau of urinary Diindolylmethane ([5]; 75 mg oral dose, around 180 minutes following oral dosing) [ng/mg Creatinine]	Treated patients with normalized cervical biopsy [6] [%]	Doses with neurologic and gastrointestinal toxicity (laryngeal papillomatosis; clinical use of I3C)	Disappearance of existing lesions (laryngeal papillomatosis; [8])	Patients with cessation of papilloma growth (laryngeal papillomatosis; [8]) [%]	Maximal tolerated dose (laryngeal papillomatosis; gastrointestinal and central nervous system side effects on increasing the dose) [mg/kg]	Clinical response of laryngeal papillomas [7]
c1ccc2c(Cc3c[nH]c4ccccc34)c[nH]c2c1 [Diindolylmethane]	No side effects	without side effects	more than 3 times	no significant side effects or adverse events	2.6	3.82	3.30	2.50	3.5						
OCc1c[nH]c2ccccc12 [I3C, Indole-3-carbinol]										50	more than 400 mg per day	did not result in the disappearance of existing lesions in any patient	33	5 to 7	failed to produce clinical improvement
